Results published in patent US20030059890A1, “DNA encoding the chimpanzee prostaglandin E2 receptor EP4 subtype” (Pfizer Inc., priority 2001, published 2003).
Read-outs that look alike come from different tables or passages of the source.

Columns and labels:
chimpanzee EP4 receptor [1] = biological target: T1, chimpanzee EP4 receptor (Pan troglodytes, UniProt Q95KZ0); test: cAMP accumulation (SPA) in CHO cells transiently transfected with chimpanzee EP4; type: cell-based; details: 12 minutes treatment, IBMX present, SPA kit
T1 sequence (Q95KZ0 whole entry): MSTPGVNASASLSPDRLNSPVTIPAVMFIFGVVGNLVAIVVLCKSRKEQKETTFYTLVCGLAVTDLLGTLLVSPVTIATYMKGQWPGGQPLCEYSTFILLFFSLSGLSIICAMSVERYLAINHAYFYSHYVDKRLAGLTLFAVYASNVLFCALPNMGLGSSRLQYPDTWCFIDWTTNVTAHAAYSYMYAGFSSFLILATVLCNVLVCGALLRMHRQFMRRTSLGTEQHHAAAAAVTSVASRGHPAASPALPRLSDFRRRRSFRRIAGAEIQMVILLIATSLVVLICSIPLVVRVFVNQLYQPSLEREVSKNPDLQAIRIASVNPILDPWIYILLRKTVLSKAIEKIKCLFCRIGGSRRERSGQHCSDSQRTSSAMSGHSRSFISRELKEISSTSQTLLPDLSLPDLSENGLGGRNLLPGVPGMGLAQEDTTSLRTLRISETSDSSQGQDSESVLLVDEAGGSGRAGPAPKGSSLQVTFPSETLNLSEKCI
Description: Error bars represent one standard deviation.
Secondary signaling in CHO cells expressing chimpanzee EP4 was measured by cAMP accumulation. CHO cells transiently transfected with chimpanzee EP4 were treated for 12 minutes with various concentrations of PGE2 in the presence of 2 mM IBMX. Accumulation of intracellular cAMP was measured at the end of the treatment period by use of a commercially available scintillation proximity assay (SPA) kit (Amersham, Arlington Heights, Ill.).
(§1) Cells were then rinsed once with PBS and the appropriate concentrations of test compounds (diluted in assay buffer: 5 mM MgCl2; 30 mM Hepes pH 7.4; 0.3 mM 3-isobutyl-1-methylxanthine, (IBMX; Calbiochem, La Jolla, Calif.); 1 mg/ml dextrose) were added. The plate was incubated at 37° C. for 12 minutes, after which 10 μl lysis buffer was added to each well to terminate the reaction. SPA reagent (RPA559, Amersham, Piscataway, N.J.) was prepared according to the manufacturer's protocol and 120 μl was added to each well. Assay plates were then counted in a Wallac Trilux counter (Perkin Elmer, Boston, Mass.).

parental CHO-K1 cells = test: cAMP levels in parental (untransfected) CHO-K1 cells; type: cell-based, Chinese hamster; details: parental CHO-K1 cells (not transfected)
Description: The protein-coding region of chimpanzee EP4 was contained in open reading frame of 1470 bp and encodes a protein of 490 amino acids with a predicted molecular weight of 53.4 kD.
as §1

chimpanzee EP4 receptor [2] = biological target: T1, chimpanzee EP4 receptor; test: Competition binding of 3H-PGE2 on CHO-K1 cells transiently transfected with chimpanzee EP4
Description: Competitive binding of various prostanoid ligands for EP1-EP4 with ^3H-PGE2 on CHO cells transiently transfected with chimpanzee EP4. Each indicated concentration of (▪) PGE2, (●) sulprostone, (▴) butaprost, or (♦) EP4SL was incubated with three wells of a 24-well dish of CHO cells transiently transfected with chimpanzee EP4 for 1 hr on ice in the presence of 3 nM 3H-PGE2. Following washing and solubilization of the cells, specific binding was determined by scintillation counting. Error bars represent one standard deviation.
The day prior to transfection, CHO-K1 cells were plated in 100 mm dishes (Corning, Corning, N.Y.) at 6×10^4 cells/cm^2 in DMEM/F12 (Life Technologies) supplemented with 10% fetal calf serum (FCS; Gemini Bio-Products, Calabasas, Calif.). The next day, each plate of cells was transfected with 15 g chimpanzee EP4-pCR3.1-Uni plasmid DNA using Lipofectamine 2000 reagent (Life Technologies) according to the manufacturer's protocol. Briefly, 451 of Lipofectamine 2000 reagent was diluted into 1.5 ml of D-MEM/F12 without serum and incubated at room temperature for 5 minutes. During this time, 15g chimpanzee EP4-pCR3.1-Uni plasmid DNA was diluted into 0.5 ml of D-MEM/F12 without serum. The diluted Lipofectamine 2000 reagent and the DNA were then mixed and incubated an additional 20 minutes at room temperature. 8 ml D-MEM/F12 without serum was then added to each reaction and carefully added to a plate of CHO cell previously rinsed with serum free D-M EM/F12. These cells were then incubated at 37° C. with 5% CO2 for 6 hr at which time 1 ml FCS was added per plate and the incubation continued at 37° C. with 5% CO2 overnight. The following day, the cells were split to either 24-well or 96-well dishes for use in ligand binding and/or secondary signaling analyses.
Whole cell binding reactions (0.2 ml per well) containing 3 nM ^3H-PGE2 plus unlabeled competitor (10^−5 to 10^−10 M) were performed on ice for 1 hr. Unbound radioligand was removed by extensive washing, the cells were solubilized with 1% SDS, and the bound ^3H-PGE2 quantitated by scintillation counting.

Row | IC50 (chimpanzee EP4 receptor [2]) | binding to the chimpanzee EP4 receptor (competition with 3H-PGE2) (chimpanzee EP4 receptor [2]; CHO-K1 cells transiently transfected with chimpanzee EP4, competitor 10^-5 to 10^-10 M) | Structure (SMILES) | EC50 (chimpanzee EP4 receptor [1]) | increased levels of cAMP (parental CHO-K1 cells) | IC50 (chimpanzee EP4 receptor [2]; read-out: IC50 for displacement of 3H-PGE2 binding, whole CHO-K1 cells transiently transfected with chimpanzee EP4, 3 nM 3H-PGE2, 1 hr on ice)
1 | 300 nM | – | O=C(O)CCCCCCN1C(=O)CCC1CCC(O)Cc1ccccc1 (stereo not shown) [EP4SL, 7-[2-(3-hydroxy-4-phenyl-butyl)-5-oxo-pyrrolidin-1-yl]-heptanoic acid] | 560 nM | not in parental CHO-K1 cells | –
2 | – | – | CCCCC[C@H](O)/C=C/[C@H]1[C@H](O)CC(=O)[C@@H]1C/C=C\CCCC(=O)O [PGE2, Prostaglandin E2] | 8.9 nM | not in parental CHO-K1 cells | 2.5 nM
3 | – | did not bind | CCCC1([C@H](O)C/C=C/[C@H]2[C@H](O)CC(=O)[C@@H]2CCCCCCC(=O)OC)CCC1 [butaprost] | – | – | –
